Legend:
[1] = molecular target: T1, porcine cortical p5-HT1a serotonin receptor (Sus scrofa, UniProt A0A4X1UTF5); experiment: Receptor binding assay, [3H]WAY100635 competition, porcine cortical membranes
T1 construct: membrane homogenates prepared from porcine striatal or cortical tissue; from tissue; host or cells: porcine cortex
T1 sequence (A0A4X1UTF5 1-422): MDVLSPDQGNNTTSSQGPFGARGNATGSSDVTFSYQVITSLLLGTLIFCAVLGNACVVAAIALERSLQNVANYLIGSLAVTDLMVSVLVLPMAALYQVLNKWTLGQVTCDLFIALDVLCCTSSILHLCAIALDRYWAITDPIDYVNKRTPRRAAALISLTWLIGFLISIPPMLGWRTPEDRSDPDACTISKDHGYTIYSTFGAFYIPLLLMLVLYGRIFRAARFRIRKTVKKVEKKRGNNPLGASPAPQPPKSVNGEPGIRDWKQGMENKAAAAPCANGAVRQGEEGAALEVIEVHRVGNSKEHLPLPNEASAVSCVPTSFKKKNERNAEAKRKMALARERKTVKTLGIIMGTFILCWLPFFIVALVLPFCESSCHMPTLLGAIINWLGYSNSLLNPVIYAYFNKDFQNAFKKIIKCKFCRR

[2] = molecular target: T2, porcine striatal pD1 dopamine receptor (Sus scrofa, UniProt P50130); experiment: Receptor binding assay, [3H]SCH 23390 competition, porcine striatal membranes
T2 construct: membrane homogenates prepared from porcine striatal or cortical tissue; from tissue; host or cells: porcine striatum

[3] = test system: porcine cortical pα1 adrenergic receptor; experiment: Receptor binding assay, [3H]prazosin competition, porcine cortical membranes; settings: vs p5-HT1a
[4] = molecular target: T3, porcine cortical pα1 adrenergic receptor; experiment: as above; settings: means of 2-8 individual experiments each done as triplicate
T3 construct: Ki pα1; other: means of 2-8 individual experiments each done as triplicate

[5] = Pig skin permeation from saturated solution; type: in vitro ADME; settings: pig leg skin 300-500 μm, phosphate buffer pH 6.2, 32° C., 48 hours, mean of cells 1-3
Procedure: (§1) The in vitro permeation of compound 1 through pig skin from saturated solution (f1) and from a patch (f2) was investigated.
(§2) For the permeation experiments horizontal cells with an acceptor and donor volume of approx. 23 mL of phosphate buffer pH 6.2 were used. The donor cells contained saturated solutions of compound 1 (2 mg/mL) in phosphate buffer pH 6.2. The experiments were performed at a temperature of 32° C. and the acceptor and donor media were slowly stirred. For the study pig leg skin with thickness of 300-500 μm were used. The experiments were performed in triplicate (n=3) over a period of 48 hours. During this time period six samples at different time points (after 2, 4, 6, 8, 24 and 48 hours) were taken. After each individual incubation period the concentration of the test compound in the acceptor medium was analysed by HPLC at 275 nm, 20° C., flow rate 2.0 mL/min in acetonitrile/water/TFA.
Evaluation: The concentration of the test compound in the acceptor medium was calculated by using an external standard solution with known concentration. Then the concentration of test compound was correlated with the incubation time by linear regression. The flux rate [μg/cm^2/h] is equivalent to the slope of the linear equation.

[6] = Pig skin permeation from patch; type: in vitro ADME
Procedure: as §1
For this permeation experiments Franz diffusion cells with a diffusion area of 2.54 cm^2 and an acceptor volume of approx. 100 mL were used. For the study pig leg skin with a thickness of 300-500 μm was used. The permeation experiments were performed at a temperature of 32° C. and the acceptor medium (phosphate buffer pH 6.2) was slowly stirred. A patch of 2.54 cm^2 area comprising about 5 wt % of compound 1 in a hydrophobic adhesive layer was fixed on the skin surface. The experiments were performed in triplicate (n=3) over a period of 48 hours. During this time period six samples at different time points (after 2, 4, 6, 8, 24 and 48 hours) were taken. After each individual incubation period the concentration of the test compound in the acceptor medium was analysed by HPLC at 275 nm, 20° C., 2.0 mL/min in acetonitrile/water/TFA.

[7] = Stability in PBS buffer pH 7.4 and SGF with 0.5% DMSO; type: physicochemical; settings: 37° C.
Procedure: 5 μL DMSO stock solution of compound 1 (2 mg/mL) were diluted with […] PBS buffer pH 7.4 and 995 μL Simulated Gastric Fluid (SGF). After dilution the samples were immediately analysed by HPLC. After the initial injection, each sample solution was repeatedly injected over a period of approximately 12 hours.

[8] = Saturated solution in phosphate buffer pH 6.2; type: physicochemical
Procedure: as §2

[9] = means of 2-8 individual experiments each done as triplicate

T2 sequence (P50130 whole entry): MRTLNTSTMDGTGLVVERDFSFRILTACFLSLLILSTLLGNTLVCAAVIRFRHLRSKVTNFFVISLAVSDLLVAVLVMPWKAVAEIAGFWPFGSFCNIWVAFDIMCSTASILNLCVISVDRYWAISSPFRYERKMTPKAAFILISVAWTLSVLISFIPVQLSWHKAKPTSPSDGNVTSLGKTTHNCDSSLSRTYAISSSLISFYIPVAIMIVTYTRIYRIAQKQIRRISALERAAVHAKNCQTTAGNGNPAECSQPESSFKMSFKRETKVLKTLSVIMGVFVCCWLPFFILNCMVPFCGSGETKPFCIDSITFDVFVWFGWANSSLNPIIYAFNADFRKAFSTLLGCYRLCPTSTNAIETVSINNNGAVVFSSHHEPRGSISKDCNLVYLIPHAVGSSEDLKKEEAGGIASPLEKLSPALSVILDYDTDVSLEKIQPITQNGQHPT

For `CCCN(CCc1cccs1)C1CCc2cccc(O)c2C1` (stereo not drawn) [Compound 1, N-(8-Hydroxytetralin-2-yl)-N-propyl-N-[2-(2-thienyl)ethyl]amine], the Ki [1, 9] was 0.00073 µM, the “selectivity ratio p5-HT1a” value ([1]; reference receptor of the ratio (=1)) was 1 and the Ki [2, 9] was 9.4 µM. The “selectivity ratio pD1” value ([2]; vs p5-HT1a) was 13 000, the “selectivity ratio pα1” value [3] was 230 and the Ki [4] was 0.17 µM. The “average flux rate from saturated solution” value [5] was 4.0 μg/cm^2/h, the “penetration of skin in an in vitro skin model of transdermal penetration” value ([6]; in words) was “able to penetrate skin” and the “average flux rate from patch” value ([6]; patch 2.54 cm^2, about 5 wt % compound 1 in hydrophobic adhesive layer, pig leg skin, 32° C., 48 hours) was 4.0 μg/cm^2/h. The “Measured Flux Rate (patch)” value ([6]; patch, pig skin) was 4.01 μg μg per cm^2/h, the “Extrapolated daily flux rate” value ([6]; per 30 cm^2 patch/24 hrs) was 2.88 mg and the “degradation (stability)” value ([7]; PBS buffer pH 7.4, 12 hours) was “No degradation”. The “degradation (stability)” value ([7]; simulated gastric fluid (pH 1-2), 12 hours) was “No degradation”, the “concentration of saturated solution” value [8] was 2000 µg/mL and the melting point was 99 °C.
